US5747503A, “Selective inhibitors of biogenic amine transporters” (priority 1996, dated 1998)
Entries after “also recorded” stand apart in the source; their conditions may differ.

Columns and labels:
[1] = system: eleven neurotransmitter, four regulatory site, four ion channel, and three second-messenger assays; experiment: NovaScreen/NIMH Psychoactive Drug Discovery Program panel; conditions: 10^-5 M
Procedure: Compound 3b also was tested in the NovaScreen/NIMH Psychoactive Drug Discovery Program which included eleven neurotransmitter, four regulatory site, four ion channel, and three second-messenger assays.

[2] = system: extracellular dopamine in the nucleus accumbens; experiment: In vivo microdialysis of extracellular dopamine in nucleus accumbens; design: species or system rat
Procedure: FIG. 3. In vivo microdialysis of extracellular dopamine in the nucleus accumbens at concentrations of 1, 10, and 100 μM of RTI-4793-14. All values are mean ±SEM (n=4). Group comparisons are made with one-way ANOVA and the Dunnetts t-test *p<0.05 and **p<0.01.
FIG. 4. Effects of systemic RTI-4793-14 (5 mg/kg, i.v.) on extracellular dopamine in the nucleus accumbens. All values are mean ± SEM (n=3). Group comparisons are made with one-way ANOVA and the Dunnetts t-test *p<0.05 and **p<0.01. FIG. 5. Schematic diagram for the synthesis of RTI-4793-41 and RTI-4793-48 compounds and analogs thereof.
Male Sprague Dawley rats (350-450 g) were anesthetized with chloral hydrate (400 mg/kg; 100 mg/ml) and supplemented as required (90 mg/kg) to abolish the corneal reflex. Animals were then placed in a stereotaxic frame and dialysis probes (CMA 12, 2 mm) were implanted into the nucleus accumbens (AP:+2mm, LAT:+l.5mm, H:-7.5mm relative to bregma) according to the atlas of Paxinos and Watson (Paxinos, G. "The rat brain in stereotaxic coordinates." (New York: Academic Press, 1982)). The dialysis probes were perfused with a physiological medium containing 145 mM NaCl, 4 mM KCl, 1.3 mM CaCl2, and 2 mM Na2 HPO41 the final pH of the medium being pH 7.4. The probes were dialyzed at a flow rate of […]. and samples were collected every 15 min.
The dialysis probes were allowed to equilibrate for 1-2 hours prior to collection of the baseline samples. […] RTI-4793-14 (1-100 μM) was then administered focally via the dialysis probe for a 15 min. sampling period at the end of which normal dialysis medium was dialyzed through the probe. Sampling continued for a further 3 samples before application of the subsequent concentration of RTI-4793-14. In a subsequent group of animals RTI-4793-14 was administered systemically (5mg/kg; 5mg/ml) via a femoral vein catheter.
The samples were analyzed for DA using HPLC with electrochemical detection. The mobile phase (75 mM NaH2 PO4, 1.5 mM sodium dodecyl sulphate, 20 mM EDTA, 15% acetonitrile and 12% methanol, pH 5.6) was filtered and degassed before pumping at a rate of 0.75 ml/min. through a HR-80 column (3m BDS, 80×4.6 mm). Electrochemical detection-was performed using a Coulochem II with Guard cell:+350 mV, Det 1: -75 mV, and Det 2: +22 mV.
In vivo microdialysis data were analyzed by using a one-way ANOVA and post-hoc Dunnetts t-test. In the focal RTI experiments in which 3 drug concentrations were administered, the baseline value for dopamine was defined as the sample preceding the application of each drug concentration. Analysis of any drug effect was therefore made comparing the baseline value prior to the drug administration.

DA transporter = conditions: Kuhar et al. 1990; cited from earlier work
NMDA receptor = conditions: Table 2; literature values (footnotes 1 and 2); read-out: NMDA Induced Current IC50; cited from earlier work

Compound	inhibition in NovaScreen panel [1]	increase in extracellular DA ([2]; focal application via the microdialysis probe, 1 μM)	increase in extracellular DA ([2]; focal application via the microdialysis probe, 10 μM)	increase in extracellular DA ([2]; intravenous, 5 mg/kg)	effect on extracellular dopamine in words ([2]; local or systemic administration in rats)	affinity at the DA transporter labeled with [^3 H]mazindol (DA transporter)	IC50 (NMDA receptor)
CN1[C@H](Cc2ccccc2)C[C@H]2Cc3ccccc3[C@H]21 (relative stereo) [RTI-4793-14, (2RS, 3aSR, 8aRS)-1,2,3a,8,8a-Hexahydro-2-benzyl-1-methyl-indeno[1,2-b]pyrrole]	No significant inhibition	about 2 fold	~8 fold	about 2 fold	increased extracellular DA; also recorded: increase the levels of dopamine in the brain		
c1ccc(C2(N3CCCCC3)CCCCC2)cc1 [PCP, phencyclidine]						low affinity	2000 nM
